Data on 28 compounds can be found in patent US6531477B1, “6-substituted pyrazolo [3,4-d] pyrimidin-4-ones useful as cyclin dependent kinase inhibitors” (DuPont Pharmaceuticals Company, priority 1998, dated 2003).

As for `CCc1nn(-c2c(Cl)cccc2Cl)c2nc(Cc3cccc(OC)c3)[nH]c(=O)c12` [Example 177], the melting point was 186 to 187 °C.

For the compound `CSc1nn(-c2c(F)cccc2Cl)c2nc(Cc3ccc(O)cc3)[nH]c(=O)c12` [Example 178], the melting point was in the range of 267 to 268 °C.

Regarding `CSc1nn(-c2c(F)cccc2Cl)c2nc(Cc3cccc(O)c3)[nH]c(=O)c12` [Example 179], the melting point lay in the range of 252 to 253 °C.

Regarding `CSc1nn(-c2c(Cl)cc(Br)cc2Cl)c2nc(Cc3ccc(O)cc3)[nH]c(=O)c12` [Example 180], the melting point was 255 to 256 °C.

As for `COc1ccc(Cc2nc3c(c(SC)nn3-c3c(F)cccc3Cl)c(=O)[nH]2)cc1` [Example 181], the melting point was in the range of 193 to 194 °C.

As to `COc1cccc(Cc2nc3c(c(SC)nn3-c3c(F)cccc3Cl)c(=O)[nH]2)c1` [Example 182], the melting point is 244 to 245 °C.

Take `COc1ccc(Cc2nc3c(c(SC)nn3-c3c(Cl)cc(Br)cc3Cl)c(=O)[nH]2)cc1` [Example 183]: the melting point is 267 to 268 °C.

`CCc1nn(-c2c(C)cccc2Cl)c2nc(Cc3ccc(O)cc3)[nH]c(=O)c12` [Example 184] had a melting point of 255 to 256 °C.

Regarding `COc1ccc(Cc2nc3c(c(SC)nn3-c3c(C)cc(Cl)cc3Cl)c(=O)[nH]2)cc1` [Example 185], the melting point lay within 252 to 255 °C.

Regarding `COc1ccc(Cc2nc3c(c(SC)nn3-c3c(C)cccc3Cl)c(=O)[nH]2)cc1` [Example 186], the melting point was 233 to 235 °C.

On to `CCc1nn(-c2c(C)cc(Cl)cc2Cl)c2nc(Cc3ccc(OC)cc3)[nH]c(=O)c12` [Example 187], for which the melting point lay within 245 to 246 °C.

On to `CSc1nn(-c2c(C)cc(Cl)cc2Cl)c2nc(Cc3ccc(O)cc3)[nH]c(=O)c12` [Example 188], for which the melting point was in the range of 277 to 279 °C.

For the compound `CSc1nn(-c2c(C)cccc2Cl)c2nc(Cc3ccc(O)cc3)[nH]c(=O)c12` [Example 190], the melting point was in the range of 264 to 266 °C.

Compound `CCc1nn(-c2c(C)cccc2Cl)c2nc(Cc3ccc(OC)cc3)[nH]c(=O)c12` [Example 191] had a melting point of 220 to 221 °C.

`CCc1nn(-c2c(C)cccc2Cl)c2nc(Cc3ccc(O)cc3)[nH]c(=O)c12` [Example 192] displayed a melting point of 257 to 259 °C.

`CCc1nn(-c2c(C)cccc2Cl)c2nc(Cc3cccc(OC)c3)[nH]c(=O)c12` [Example 193] displayed a melting point of 188 to 190 °C.

Take `CCc1nn(-c2c(Cl)cc(C(=O)O)cc2Cl)c2nc(Cc3ccc(OC)cc3)[nH]c(=O)c12` [Example 195]: the melting point was in the range of 292 to 294 °C.

Regarding `CCc1nn(-c2c(Cl)cc(C(=O)O)cc2Cl)c2nc(Cc3ccc(O)cc3)[nH]c(=O)c12` [Example 196], the melting point fell in the range of 308 to 310 °C.

The compound `CCc1nn(-c2c(Cl)cc(C(=O)O)cc2Cl)c2nc(Cc3cccc(O)c3)[nH]c(=O)c12` [Example 198] displayed a melting point of 280 to 282 °C.

The compound `Cc1cccc(Cl)c1-n1nc(C(C)C)c2c(=O)[nH]c(Cc3ccc(N)cc3)nc21` [Example 199] displayed a melting point of 205 to 206 °C.

`CCc1nn(-c2c(Cl)cc(C(=O)NC)cc2Cl)c2nc(Cc3ccc(OC)cc3)[nH]c(=O)c12` [Example 201] displayed a melting point of 278 to 280 °C.

With `CCc1nn(-c2c(Cl)cc(C(=O)O)cc2Cl)c2nc(Cc3ccc(N)cc3)[nH]c(=O)c12` [Example 205], the melting point fell in the range of 226 to 228 °C.

For the compound `COc1cccc(Cc2nc3c(c(CO)nn3-c3c(Cl)cc(Cl)cc3Cl)c(=O)[nH]2)c1` [Example 208], the melting point fell in the range of 227 to 229 °C.

`Cc1cc(Cl)cc(Cl)c1-n1nc(C(C)C)c2c(=O)[nH]c(Cc3ccc(N)cc3)nc21` [Example 217]: the melting point lay within 212 to 213 °C.

`COc1cccc(Cc2nc3c(c(C(C)C)nn3-c3c(Cl)cc(S(N)(=O)=O)cc3Cl)c(=O)[nH]2)c1` [Example 225] came in with a melting point of 244 to 245 °C.

Compound `CCc1nn(-c2cc(C(F)(F)F)ccc2Cl)c2nc(Cc3cccc(O)c3)[nH]c(=O)c12` [Example 227] yielded a melting point of 227 to 229 °C.

On to `CCNC(=O)c1cc(Cl)c(-n2nc(CC)c3c(=O)[nH]c(Cc4cccc(OC)c4)nc32)c(Cl)c1` [Example 236], for which the melting point is 226 to 228 °C.

For `CCc1nn(-c2c(Cl)cc(C(=O)NC(C)(C)C)cc2Cl)c2nc(Cc3cccc(OC)c3)[nH]c(=O)c12` [Example 238], the melting point lay in the range of 222 to 224 °C.
